Test results published in patent US20130058998A1, “ENCAPSULATED N-ACETYLMANNOSAMINE OR N-ACETYLNEURAMINIC ACID TO INCREASE SIALYLATION” (United States of America as represented by the Secretary, …, priority 2011, published 2013).

How the values were obtained:
[1] = system: HIBM Gne M712T mutated pups; assay: Survival of mutant HIBM Gne M712T pups after treatment; assay type: in vivo, mouse; settings: for survival of mutant pups at P5: Gne M712T mutant pups, untreated 8% survived; for survival rates: orally delivered in drinking water, -/- pups
[2] = system: Gne-deficient mouse embryonic stem cells; settings: growth medium supplemented with ManNAc; Schwarzkopf et al. 2002; cited from earlier work
cultured cells = settings: Charter et al. 2000; cited from earlier work
[3] = oral (not liposome-embedded), addition to drinking water

CC(=O)N[C@H]1[C@@H](O)[C@H](O)[C@@H](CO)O[C@H]1O [ManNAc, N-acetyl-D-mannosamine]
survival of mutant pups at P5 ([1]; intravenous (IV) injection at P1, ManNAc-Lipoplex in 2 different mouse backgrounds): 8%
survival of mutant pups at P5 [1, 3]: 48%
survival rates [1]: 48%
sialylation of hyposialylated cells [2]: became resialylated

CC(=O)CCC(=O)N[C@@H]1C(O)O[C@H](CO)[C@@H](O)[C@@H]1O (some centres unmarked) [ManLev, N-levulinoylmannosamine]
incorporation of sialic acid analogs (SiaLev or SiaNAz) into cell surface glycoconjugates (cultured cells): resulted in incorporation of the downstream sialic acid analogs

CC(=O)N[C@H]1[C@H]([C@H](O)[C@H](O)CO)OC(O)(C(=O)O)C[C@@H]1O (some centres unmarked) [NANA, N-acetylneuraminic acid]
survival of mutant pups at P5 [1, 3]: 10%
survival rates [1]: 10%

[N-]=[N+]=NCC(=O)N[C@@H]1C(O)O[C@H](CO)[C@@H](O)[C@@H]1O (some centres unmarked) [ManNAz, N-azidoacetyl-mannosamine]
incorporation of sialic acid analogs (SiaLev or SiaNAz) into cell surface glycoconjugates (cultured cells): resulted in incorporation of the downstream sialic acid analogs
